Patent publication US5322840A, “Treatment of hyperlipemia and hypertriglyceridemia” (Centre d'Etudes Experimentales et Cliniques de …, priority 1990, dated 1994)
“Also recorded” adds a separate entry of the source.

Tests used:
normal animals = assay: Administration in normal animals, hypolipemia (conclusion, route not stated); type: in vivo
Description: (§1) In normal animals, the fatty acids, triglycerides and cholesterol are determined by automated enzymatic reactions.

normal rats [1] = assay: Normal rats, intraperitoneal administration, plasma lipids; type: in vivo, rat
Description: as §1
The animals are distributed in five lots of five animals each:
[…] receiving 0.1, 0.3, and 3 mg/kg.
The animals are sacrificed two hours after the administration of the Agr 529.

normal rats [2] = assay: Kinetic study of Agr 529 at 3 mg/kg iv in normal rats; type: in vivo, rat
Description: as §1
c) Kinetic study of Agr 529 in an amount of 3 mg/kg iv (FIG. V, VI, VII, VIII).

[3] = system: ACAT (cholesterol-O-acyl transferase); assay: In vitro study on microsomal fraction of liver: ACAT activity; type: biochemical; conditions: 'the same' = no action
normal rats [4] = assay: Normal rats, intravenous administration, plasma lipids; type: in vivo, rat
Description: as §1
The animals are distributed into six lots of five animals each:
a control lot receiving the placebo (0.9% isotonic saline solution),
five treated lots receiving 0.03, 0.1, 0.3, 1 and 3 mg/kg of Agr 529 respectively by intravenous injection.
The animals are sacrificed two hours after the injection of the product.

[5] = system: HMG CoA reductase (β-hydroxy-β-methylglutaryl CoA reductase); assay: In vitro study on microsomal fraction of liver: HMG CoA reductase activity; type: biochemical
[6] = system: hypertriglyceridemia provoked by Triton WR1339 in Fauve de Bourgogne rabbits; assay: Triton-provoked hypertriglyceridemia in rabbits, Agr 529 iv; type: in vivo, rabbit
Description: Fauve de Bourgogne rabbits of an average weight of 2 kg (EGAV).
(§2) The hypertriglyceridemia is obtained by the intravenous (iv) injection of Triton WR1339 (tyloxapol) in a dose of 600 mg/kg, obtained from the Sigma Chemical Company, N. T 8761 (marginal vein of the ear of the rabbit, jugular vein or vein of the penis of the rat, under slight ether anesthesia, the pentobarbital which attaches itself on the A1 receptors being capable of interacting with the molecules used (Lhose et al., 1985). All the animals used had fasted for 15 hours. The blood was collected over heparin, centrifuged for 20 minutes (3000 rpm at 4° C.). In the serum collected, the TG (triglycerides) are determined in accordance with the GPO-PAP method Boeringher Peridochrom® Kit, item 701-882.
(§3) The animals are divided into two lots:
a control lot (6 animals) receiving isotonic saline solution iv in a volume of 0.5 ml/kg two hours before the injection of Triton and the same dose of saline solution as previously.
a treated lot (7 animals) receiving 2 mg/kg of Agr 529 iv in a volume of 0.5 ml/kg two hours before the injection of Triton and a new dose of Agr 529 (2 mg/kg).
A sampling of arterial blood, two hours after the injection of the Triton, permits determination of the triglycerides.

[7] = system: hypertriglyceridemia provoked by Triton WR1339 in Sprague-Dawley rats; assay: Triton-provoked hypertriglyceridemia in rats, per os; type: in vivo, rat; conditions: for Triglycerides: Triton controls 7.53 ± 0.49; for triglycerides plasma concentrations: per os in doses of 3 and 30 mg/kg; for triglycerides plasma concentrations / action on the increase in the circulating triglycerides: Triton model; for action on the increase in the circulating triglycerides: per os
Description: (§4) Sprague-Dawley male white rats, Iffa Credo, of an average weight of 260-270 g.
as §2
The animals are divided into six lots:
one control-control lot receiving per os isotonic saline solution in a volume of 0.2 ml/100 g of rat 30 minutes before the iv injection of isotonic saline solution.
a Triton control lot receiving per os isotonic saline solution 30 minutes before the iv injection of Triton.
an Agr 529 lot (3 mg/kg in a volume of 0.2 ml/100 g of rat), 30 minutes before the iv injection of Triton.
one lot receiving, under the same conditions, 30 mg/kg of Agr 529 per os.
two lots receiving, under the same conditions as previously, 3 and 30 mg/kg of Agr 540 per os.

[8] = system: hypertriglyceridemia provoked by Triton WR1339 in Sprague-Dawley rats; assay: Triton-provoked hypertriglyceridemia in rats, intraperitoneal route; type: in vivo, rat
Description: as §4, §2, §3
a control lot (4 animals) receiving isotonic saline solution in a volume of 0.2 ml/100 g of rat by intraperitoneal injection (ip), 20 minutes before the injection of the Triton (iv).
a treated lot (5 animals) receiving 2 mg/kg of Agr 529 ip, under the same conditions as the controls.
Two hours later, the animals are sacrificed by decapitation; the blood is collected by the method previously described, for determination of the triglycerides.

[9] = report submitted on Agr 529; cited from earlier work
[10] = rats, 30 mg/kg P.O. + Triton 600 mg/kg iv

With `NC(=O)CCCNc1ncnc2c1ncn2[C@@H]1O[C@H](CO)[C@@H](O)[C@H]1O` [Agr 529, (N6-3-carboxamido-propyl) adenosine] as the compound, how does the “hypolipemia (reduction of fatty acids, phospholipides, triglycerides and cholesterol)” value (normal animals) read?
Its value is “causes a hypolipemia”.

What about the hyperglycemia (normal rats [1]; 0.3 mg/kg intraperitoneal) of the same compound?
Its hyperglycemia is “hyperglycemia is no longer found”.

And the minimal effective dose (normal rats [1]; Rattus norvegicus, ip, 2 h, intraperitoneal, two hours after administration, read-out: dose from which the hypolipemizing effect starts to be significant)?
The minimal effective dose was at least 0.3 mg/kg.

And the “hypolipemia, dose dependence” value (normal rats [1]; intraperitoneal administration)?
The value was “hypolipemia as a function of the doses”.

What about the “time after injection at which the hypolipemizing effect starts to appear” value (normal rats [2]) of the same compound?
The value was 30 min.

What about the “time of maximum hypolipemizing effect” value (normal rats [2]) of the same compound?
The value was “maximum at the end of two hours; also recorded: maximum effect at two hours”.

What about the “stability towards adenosine deaminase (inferred from long duration of action)” value (normal rats [2]; inferred in vivo) of the same compound?
Its value is “not destroyed by the adenosine deaminase”.

What about the “concentrations of fatty acids, triglycerides, total cholesterol and phospholipides” value (normal rats [2]; kinetic study) of the same compound?
Its value is “significant decrease”.

What about the “action on the activity of ACAT” value [3] of the same compound?
Its value is “The same is true”.

And the hyperglycemia (normal rats [4]; 3 mg/kg iv)?
The hyperglycemia was “hyperglycemia is furthermore noted”.

What about the “concentration of plasma triglycerides, total cholesterol, fatty acids and phospholipides” value (normal rats [4]; 3 mg/kg iv, two hours after the injection, 3 mg/kg) of the same compound?
Its value is “significant decrease”.

And the minimal effective dose (normal rats [4]; Rattus norvegicus, 2 h, iv, doses 0.03-3 mg/kg, two hours after injection, read-out: dose from which the hypolipemizing effect appears)?
The minimal effective dose was at least 0.1 mg/kg.

And the “plasma concentrations of fatty acids, phospholipides, triglycerides and total cholesterol, dose dependence” value (normal rats [4]; intravenous administration)?
The value was “decrease, as a function of the doses”.

What about the “cholesterol and triglyceride concentrations of the high density lipoproteins (HDL)” value (normal rats [4]; route not specified) of the same compound?
The value was “No action”.

And the “action on the activity of the HMG CoA reductase” value [5]?
The value was “no action”.

What about the “plasma concentration of the circulating triglycerides” value ([6]; 2 mg/kg intravenously in rabbits, Triton WR 1339 model) of the same compound?
The value was “normalized the plasma concentration of the circulating triglycerides”.

What about the “Triglycerides time = 2” value ([6]; rabbits n = 7, 2 hours after Agr 529 2 mg/kg iv, before Triton) of the same compound?
The value was 3.19 ± 0.38 mmol/L.

And the “Triglycerides time = 4” value ([6]; rabbits n = 7, 2 hours after second Agr 529 2 mg/kg iv + Triton 600 mg/kg iv)?
Its value is 4.65 ± 0.44 mmol/L.

What about the “increase of the triglycerides caused by Triton” value ([6]; rabbits, Agr 529 2 mg/kg iv, control increase 196.5%) of the same compound?
The value was 45%.

And the “Triglycerides time = 0” value ([6]; rabbits, test lot n = 7, time = 0, before first injection of Agr 529 2 mg/kg iv)?
The value was 1.95 ± 0.34 mmol/L.

And the “concentration of triglycerides less than the Triton controls” value ([6]; rabbits, time 4, Agr 529 2 mg/kg iv)?
Its value is 150%.

What about the Triglycerides ([7]; rats, 3 mg/kg P.O. + Triton 600 mg/kg iv) of the same compound?
The Triglycerides was 4.87 ± 0.69 mmols/liter.

What about the Triglycerides [7, 10] of the same compound?
The Triglycerides was 4.64 ± 0.74 mmols/liter.

What about the triglycerides plasma concentrations ([7]; rats) of the same compound?
Its triglycerides plasma concentrations is “return the triglycerides plasma concentrations to normal”.

What about the “action on the increase in the circulating triglycerides” value ([7]; rats) of the same compound?
Its value is “significantly oppose the increase in the circulating triglycerides”.

And the “plasma concentration of the circulating triglycerides” value ([8]; 2 mg/kg intraperitoneally, Triton WR 1339 model)?
Its value is “normalized the plasma concentration of the circulating triglycerides”.

And the Triglycerides ([8]; rats n = 5, Agr 529 2 mg/kg ip + Triton 600 mg/kg iv, two hours later, controls 6.32 ± 0.92)?
Its Triglycerides is 2.90 ± 0.26 mmols/liter.

And the “decrease in the quantity of triglycerides in circulation” value ([8]; rats, Agr 529 2 mg/kg ip, Triton model, significant (**))?
Its value is 54%.

For `CCC(=O)OC[C@H]1O[C@@H](n2cnc3c(NCCCC(N)=O)ncnc32)[C@H](OC(=O)CC)[C@@H]1OC(=O)CC` [Agr 540, 6-(3-carboxamido-propylamino)-9-(2', 3', 5', tripropionyl-β-D-ribosyl) purine], which “hypolipemia (reduction of fatty acids, phospholipides, triglycerides and cholesterol)” value (normal animals) is on record?
The value was “causes a hypolipemia”.

What about the Triglycerides ([7]; rats n = 6, first Agr 540 column, head prints 30 mg/kg P.O. + Triton 600 mg/kg iv) of the same compound?
Its Triglycerides is 5.65 ± 0.46 mmols/liter.

What about the Triglycerides [7, 10] of the same compound?
Its Triglycerides is 3.67 ± 0.59 mmols/liter.

What about the triglycerides plasma concentrations ([7]; rats) of the same compound?
The triglycerides plasma concentrations was “return the triglycerides plasma concentrations to normal”.

And the “action on the increase in the circulating triglycerides” value ([7]; rats)?
The value was “significantly oppose the increase in the circulating triglycerides”.

What about the “absorption per os relative to Agr 529” value [9] of the same compound?
Its value is “better absorbed per os”.
